Assay results as given in patent US20030083822A2, “SYSTEMS AND METHODS FOR […] INFORMATICS” (PsychoGenics, Inc., priority 2001, published 2003).

Test system: mice
Experiment: Transition-matrix analysis of behavior of drug-treated mice, coded by human observers (Figure 13)
Assay type: in vivo
Details: average matrix of drug treated mice normalized to control (vehicle) matrix; increase
Experimental: Testing drugs several times and comparing the results can address replication. Significance is illustrated in Figure 13, where exemplary data is shown from an experiment in which mice were treated with one of the indicated drugs ensuing behavior was recorded and later coded by human observers. In the analysis of transition matrices, the average matrix of the drug treated mice was combined with the average matrix of the control mice. The control data was treated as the "population" data as it was expected to have very large numbers from mice treated with same vehicle as more and more experiments that require such vehicle are conducted.
Referring again to Figure 13, the average transition matrix was transformed as a z-score matrix based on the mean and standard error of the control matrix. In doing so, every drug transition (fd,i) subtracted the corresponding control transition (fc,i) and divided by the standard error (sc,i), as in zd,i=((fd,i)-(fc,i))/(sc,i) was obtained. Although this is just one possible way to normalize the data (e.g., student t-scores can also be calculated), it has some intuitive appeal, as the z-scores can now be read as distance from the control in standard-deviation units. Thus, in Figure 13, the first cell of the matrix corresponding to chlordiazepoxide (CDP), can be read as "CDP increased the number of rear-rear transitions more than 30 fold". […]

In the case of `CNC1=Nc2ccc(Cl)cc2C(c2ccccc2)=[N+]([O-])C1` [CDP, chlordiazepoxide], the “number of rear-rear transitions (first cell of the z-score transition matrix)” value is reported as “more than 30 fold”.
